Consider five compounds from patent US4293553A, “1-Phthalazone derivatives, and use thereof” (Ishikawa; Masayuki, priority 1978, dated 1981).

This data set is described as follows: Acute toxicity, LD50 in mice (Litchfield and Wilcoxon). The following applies: mouse, in vivo, po. Here is the method:
LD50 values were determined in mice and calculated according to the method of Litchfield and Wilcoxon described in J. Pharmacol. Exp. Ther., 96, 99 (1949).
By LD50 is commonly meant the dose at which mortality reaches 50%. The low end stands for a more toxic substance, the high end for a less toxic substance. `CCOC(=O)c1c(C)cc2cnn(-c3ccccc3Cl)c(=O)c2c1C` [7-ethoxycarbonyl-6,8-dimethyl-2-(o-chlorophenyl)-1-phthalazone] had an LD50 of 386 mg/kg.
In the case of `CCOC(=O)c1c(C)cc2c(CO)nn(-c3ccccc3Cl)c(=O)c2c1C` [7-ethoxycarbonyl-6,8-dimethyl-2-(o-chlorophenyl)-4-hydroxymethyl-1-phthalazone], the LD50 came out at 564 mg/kg.
For `CCOC(=O)c1c(C)cc2cnn(-c3ccccc3F)c(=O)c2c1C` [7-ethoxycarbonyl-6,8-dimethyl-2-(o-fluorophenyl)-1-phthalazone], the LD50 worked out at 450 mg/kg.
The compound `CCOC(=O)c1c(C)cc2cnn(-c3ccccc3)c(=O)c2c1C` [7-ethoxycarbonyl-6,8-dimethyl-2-phenyl-1-phthalazone] came in with an LD50 of 480 mg/kg.
The compound `CCOC(=O)c1c(C)cc2c(CO)nn(-c3ccccc3)c(=O)c2c1C` [7-ethoxycarbonyl-6,8-dimethyl-4-hydroxymethyl-2-phenyl-1-phthalazone] displayed an LD50 of 540 mg/kg.
